Results as given in patent US20250288558A1, “THERAPEUTIC FOR SPINAL CORD INJURY TO INDUCE HYPOTHERMIA” (The Trustees of Indiana University, priority 2024, published 2025).
Counter-ions that a name gives are not always drawn.

Key:
[1] = test system: mice with moderate contusive spinal cord injury (SCI) at thoracic 9 (T9)
Method: The effects of different doses of Dex on hypothermia induction in none-injury young adult c57 BL/6 mice was tested. […] Further, we examined the change of Dex induced hypothermia when the routine Avertin (2.5%), a wildly used anesthetic for small animal surgery was applied.
Therefore, we compared the functional outcomes of Dex treated SCI mice with SCI only mice using multiple behavior tests post-trauma. C57 BL/6 wild type mice (female) at age of 8 weeks were randomly assigned into three different groups, including sham, SCI, and SCI+Dex. Then the moderate T9 contusive SCI was introduced in two injury groups using LISA injury model. Mice in sham and SCI only group were put on the heating pad to maintain their normal body temperature, while mice in Dex treated group were exposed in ambient room temperature of 24.5° C. for hypothermia during whole surgery and recovery process. One hour after injury, one dose of Dex (100 μg/kg) was IP administrated to rapidly induce early moderate to modest therapeutic hypothermia (30-32° C.). All mice body temperature were measured by rectal probe every 30 minutes to monitor the hypothermia after surgery till the mice fully waked up and back to normothermia. After SCI injury, at different time, multiple behavioral tests, were applied to examine functional outcomes and the potential neuroprotective effects of Dex treatment (FIG. 3A). The Basso Mouse Scale (BMS) was a reliable measurement that developed to examine the locomotion in spinal cord injured mice. It has been widely used in mouse functional evaluation and serves as an indicator of recovery. This test examines different locomotor categories such as paralysis, weight support, stepping, trunk stability, and so on. The scores ranged from 9 to 0 that represent normal movement to complete paralysis, respectively. Three days prior surgery, the BMS scores of all mice in different groups were measured. Only mice with 9 score were kept. The mice with score lower than 9 were replaced to make sure mice in different groups had same baseline of locomotion. After surgery, the BMS score was repeatedly measured at 3 days, 1 week, 2 weeks, 3 weeks, 4 weeks, 5 weeks, and 6 weeks (FIG. 3B).
Contusive spinal cord injury: Adult female C57BL/6 mice (8 weeks old, 18-22 g) were purchased from The Jackson Laboratory (Bar Harbor, ME). Depending on different injury model, mice were either randomly divided into three groups: sham, SCI+heating pad, and SCI+Dex for LISA injury model, or were randomly divided into four groups: sham, SCI+heating pad, SCI+Dex, and SCI+Conventional hypothermia for Infinite Horizons (IH) model. […]

mouse with a SCI [2] = test system: mouse with a SCI
Method: Referring to FIGS. 5A-5C, to evaluate the coordination of bladder and external urethral sphincter, urodynamic recordings were performed. Bladder cystometrograph (CMG) and external urethral sphincter electromyography (EMG) were co-recorded. The peak intravesical pressure in CMG indicates the contraction of bladder detrusor. The bursting signal in external urethral sphincter EMG is a sign of relaxation of external urethral sphincter. The coordination of bladder and external urethral sphincter was reflected by the synchronization of two signals. […] In chronically injured mice, restoration of reflex external urethral sphincter relaxation correlates with the re-appearance of external urethral sphincter bursting. Therefore, external urethral sphincter bursting is a good indicator of external urethral sphincter functional recovery after SCI in mice.

[3] = test system: mice with contusive T9 moderate SCI (IH); details: 6 wk, SCI+Dex, n=10
Method: Grid-walking: The grid-walking test assesses the ability of a mouse to place its paws on the rungs of a grid accurately during spontaneous exploration. An elevated metal rectangle grid (12×36 inch2 with each grid cell 0.5×0.5 inch2) and 16 inches above a table top was used for the hindlimb drop error test. Each mouse was placed in the center of the grid for 3 min. A one-foot drop error was counted when the hindlimb paw was entirely dropping through the grid with all toes and heel below the grid surface. The total number of foot drop errors and total number of steps were recorded by video. Two observers who were blinded to the experiment analyzed the video and counted the steps. The grid-walking test was performed on the day before surgery and on days 21 and 35 post-SCI. Only those mice with consistent plantar stepping (BMS≥5) were tested on the grid.

GFAP = details: epicenter
Method: Immunofluorescent Staining: Immunofluorescent staining was carried out according to our previous reports. In brief, sections on the slides were rinsed in PBS 3 times (5 minutes each) and incubated in blocking buffer (0.1% Triton X-100, 1% bovine serum albumin, and 5% normal serum in PBS) for 1 hour at room temperature. Then, primary antibodies were added to blocking buffer and incubated with sections overnight at 4° C. After 3 washes with PBS (5 minutes each), sections were incubated with the secondary antibody for 1 hour at room temperature and then treated with 4′,6-Diamidino-2-phenylindole (DAPI) for 2 minutes. Finally, sections were washed 3 times with PBS (5 minutes each), dried, and mounted using Fluoromount G (Southern Biotech, Birmingham, AL, USA). Primary antibodies and their final concentrations were as follows: NeuN antibody (1:500, chicken, Abcam, ab134014), SMI31 antibody (1:1000, mouse, Millipore, NE1022), and GFAP antibody (1:1000, mouse, Sigma, G3893).

mouse with a SCI [4] = details: metabolic cage, n=5
[5] = test system: mice with moderate T9 contusive SCI; details: weeks 3-6 post-injury, n=10, p<0.05
Text: Thus, Rotarod was further performed to assess motor coordination, balance, and motor learning specifically post-injury.
(§1) Rotarod test: Rotorod is used to assay the hindlimb function of the animal. The animal was put on a rotated device. It consisted of a metal frame with a motorized, rotating assembly of rods. Animals were allowed to remain stationary. […] If animal skilled, it can remain on the device at this speed for extra 30 sec until the 2-min test period elapsed. Normally, a trial was ended if the animal fell completely off the rod or gripped the rod and spun around without attempting to walk on the rod. Mean duration on the rod was recorded.

[6] = test system: mice with contusive T9 moderate SCI (IH); details: IH model
Text: as §1

Compound: Cc1cccc([C@H](C)c2cnc[nH]2)c1C [Dex, dexmedetomidine hydrochloride]
- time at which normal body temperature was regained ([1]; Dex 100 μg/kg 1 hour after T9 SCI): 24 hr post trauma
- duration of hypothermia ([1]; Dex 100 μg/kg one hour after T9 SCI (LISA)): up to 16 hours
- time to spontaneously rewarm to normal temperature ([1]; Dex 100 μg/kg one hour after T9 SCI, after the hypothermia period): 5 to 6 h
- rewarming rate ([1]; Dex 100 μg/kg one hour after T9 SCI, spontaneous rewarming, hydrochloride): < 1.0 °C per hour
- voiding efficiency (mouse with a SCI [2]; n=5, p<0.05 vs. SCI group): 15.9±6.6%
- bladder capacity (mouse with a SCI [2]; p<0.05 vs. SCI group): 0.56 ± 0.31 mL
- synchronization of bladder CMG and external urethral sphincter EMG signals (mouse with a SCI [2]; vs. SCI): enhanced the synchronization
- Grid walk foot fall [3]: 12.9±3.6
- intensity of GFAP-positive signal compared to none-treatment SCI mice (GFAP): decreased significantly
- urination volume (mouse with a SCI [4]; 24 hours): 0.48 ± 0.22 mL
- residual urine volume (mouse with a SCI [4]): 0.4 ± 0.22 mL
- increased rate of Rotarod retention time vs. SCI only [5]: around 75%
- Rotarod duration time ([6]; 6 wk, SCI+Dex, n=10): 35.3±1.84
- Rotarod average increase rate vs. none-treatment SCI mice [6]: 55%
